Values joined by “and” are separate entries in the source; they are usually repeats but may differ in a detail not shown here. Identical values can stand only once. Like-named read-outs stand apart in the source and are kept apart here.

The subject of data set [1] is metastatic or inflammatory breast cancer. Format: in vivo, human.
Data set [2] has as its system breast cancer. Conditions: cited from earlier work.

In the case of `O=NN(CCCl)C(=O)NCCCl` [BCNU, 1,3-bis-(chloroethyl)-1-nitrosourea], the “Survival >3 years: Yes” value in data set [1] (human, in vivo) is 55.6% and 29.7%.
As for `O=P1(N(CCCl)CCCl)NCCCO1` (stereo not drawn) [CY, cyclophosphamide], the “chance of survival relative to patients homozygous for the A allele” value was “⅓” in data set [1] (CYP3A4 B allele patients) and “less than ⅓” in data set [1] (CYP3A5 B allele patients). The “Survival >3 years: Yes” value in data set [1] (CYP3A4 genotype AA (wildtype)) is reported as 46.6%; in data set [1] (CYP3A4 genotype AB or BB) it was 15.4%; in data set [1] (CYP3A5 genotype AA (wildtype)), 48.2%; in data set [1] (CYP3A5 genotype AB or BB), 14.3%. In addition, for the setting “patients carrying the CYP3A4 promoter -392 variant vs without, p=0.0247”, the “blood concentrations of CY on day 3” value is “significantly higher”. Besides, the “blood concentrations of CY on day 2” value reads like this: (patients carrying the CYP3A4 promoter -392 variant vs without, p=0.0260) “significantly higher”; (patients carrying the CYP3A5 promoter -147 variant vs without, p=0.0281) “significantly higher”. The “Apparent induction of CY metabolism (Day 3 exposure/Day 1 exposure)” value (patients carrying the CYP3A4 variant SNP vs without, p=0.0260) is on record as “higher”. The “concentrations of CY” value (patients with CYP3A4 B allele vs homozygous for the A allele, day not given) was “higher”. Besides, the “Blood concentrations of CY” value (patients with CYP3A5 B alleles vs homozygous for the A allele, day not given) is on record as “significantly higher”. Moreover, the “objective responses, patients” value in data set [2] (cyclophosphamide used alone) was “about 35%”; in data set [2] (cyclophosphamide used in combination regimens), “up to 90%”.

The record behind these values is patent US6929912B2 (priority 1998, dated 2005).
